Data from US8969336B2, “Diamino heterocyclic carboxamide compound” (Astellas Pharma Inc., priority 2009, dated 2015).

Tests used:
[1] = target: EML4-ALK fusion protein v1 (Homo sapiens (Human), UniProt Q9UM73); assay: Inhibitory activity against the kinase activity of EML4-ALK fusion protein (HTRF KinEASE-TK); assay type: biochemical; details: ATP 100 μM, reaction 1 hour
Source text: A recombinant retrovirus was created from expression plasmid FLAG-EML4-ALKv1/pMX-iresCD8 in which cDNA for EML4-ALK fusion protein v1 was integrated, and injected into mouse lymphoid cell line BA/F3 cells. Using a magnetic bead reagent for cell separation and a purification column (anti-CD8 monoclonal antibody immobilized on magnetic beads and a MiniMACS purification column; both are products of Miltenyi Biotec Inc.), cell surface CD8-expressing cells were purified to establish EML4-ALK fusion protein v1-expressing BA/F3 cells. From the cells, EML4-ALK fusion protein v1 was purified and subjected to kinase activity evaluation. EML4-ALK fusion protein v1 was investigated for its phosphorylation activity toward a peptide substrate by using a kinase activity detection kit (HTRF KinEASE-TK; Cisbio Inc.). […] The ATP concentration used was 100 μM.

[2] = tested on: BA/F3 cells expressing EML4-ALK fusion protein v1; assay: Growth inhibitory activity against EML4-ALK fusion protein-dependent cells; assay type: cell-based, mouse; details: growth of EML4-ALK fusion protein v1-expressing BA/F3 cells, cultured 2 days
Method: EML4-ALK fusion protein v1-expressing BA/F3 cells can grow in the absence of IL-3. In other words, they are cells that EML4-ALK fusion protein v1-dependently grow.
In a 96-well plate (Iwaki), BA/F3 cells expressing EML4-ALK fusion protein v1 were seeded at 500 cells per well in RPMI1640 medium (Invitrogen) containing 10% fetal bovine serum, followed by addition of a test compound (final concentration: 10 μM to 0.1 nM). As a negative control, DMSO used as a solvent of the test compound was added. Then, the cells were cultured under 5% CO2 at 37° C. for 2 days. A cell counting reagent (AlmarBlue; Biosource) was added, and the cells were cultured for 150 minutes, followed by measurement of fluorescence intensity with a […] (Safire; Tecan) in accordance with instructions attached to the reagent.

[3] = tested on: human non-small cell lung cancers cell line NCI-H2228 cells; assay: Antitumor test (in vivo) on NCI-H2228 cells; details: oral administration, NOD/SCID mice, Student's t-test
Source text: The antitumor effects on EML4-ALK fusion protein-dependent cells can also be confirmed by use of human non-small cell lung cancers cell line NCI-H2228 cells (cells derived from EML4-ALK fusion polynucleotide-positive lung cancer patients (EML4-ALK fusion protein v3-dependent cells)) in place of the EML4-ALK fusion protein v1 expressing 3T3 cells of Test Example 3, as shown below.
3×10^6 cells of NCI-H2228 cells suspended in 50% Matrigel (Invitrogen) were inoculated subcutaneously by injection to the back of 5 weeks old male NOD/SCID mice (Charles River Japan, Inc.). After 3 weeks of the inoculation, the administration of test compounds was initiated. The test was conducted in the solvent group and test compound groups, 6 animals per group. The test compounds were each dissolved in a solvent composed of 10% 1-methyl-2-pyrrolidinone (SIGMA-ALDRICH Inc.)/90% polyethylene glycol 300 (Fluka Inc.) and administered orally at a dose of 1 mg/kg. Administrations were performed once a day for 14 days, and body weight and tumor size were measured every other day. Tumor volume was calculated using the following formula. [Tumor volume(mm^3)]=[Tumor major axis(mm)]×[tumor minor axis(mm)]^2×0.5

[4] = tested on: EML4-ALK fusion protein v1 expressing 3T3 cells; assay: Antitumor test (in vivo) on EML4-ALK fusion protein v1 expressing 3T3 cells; details: oral 10 mg/kg once a day for 5 days, Balb/c nude mice, EML4-ALK v1 3T3 tumor; for rate of regression (tumor volume): values marked (regression)
Source text: Expression plasmid EML4-ALKv1/pMXS in which cDNA for EML4-ALK fusion protein v1 was integrated was trasfected into 3T3 fibroblast cells by the phosphate calcium method to thereby establish EML4-ALK fusion protein v1 expressing 3T3 cells. 3×10^6 cells of EML4-ALK fusion protein v1 expressing 3T3 cells suspended in PBS were inoculated subcutaneously by injection to the back of 5 weeks old male Balb/c nude mice (Charles River Japan, Inc.). After 7 days of the inoculation, the administration of test compound was initiated. The test was conducted in the solvent group and the compound group, 4 animals per group. The test compound was suspended in a solvent composed of 0.5% methylcellulose and administered orally at a dose of 10 mg/kg. Administrations were performed once a day for 5 days, and body weight and tumor size were measured every other day. Tumor volume was calculated using the following formula. [Tumor volume(mm^3)]=[Tumor major axis(mm)]×[tumor minor axis(mm)]^2×0.5
When regression of tumor volume is induced from the day of starting administration, the tumor volume on the day of starting administration and the state in which the tumor disappeared were assumed to be 0% regression and 100% regression, respectively, and the rate of regression of the test compound was calculated.

Chain of EML4-ALK fusion protein v1 (Q9UM73 other isoform, or with tags, fused parts or gaps): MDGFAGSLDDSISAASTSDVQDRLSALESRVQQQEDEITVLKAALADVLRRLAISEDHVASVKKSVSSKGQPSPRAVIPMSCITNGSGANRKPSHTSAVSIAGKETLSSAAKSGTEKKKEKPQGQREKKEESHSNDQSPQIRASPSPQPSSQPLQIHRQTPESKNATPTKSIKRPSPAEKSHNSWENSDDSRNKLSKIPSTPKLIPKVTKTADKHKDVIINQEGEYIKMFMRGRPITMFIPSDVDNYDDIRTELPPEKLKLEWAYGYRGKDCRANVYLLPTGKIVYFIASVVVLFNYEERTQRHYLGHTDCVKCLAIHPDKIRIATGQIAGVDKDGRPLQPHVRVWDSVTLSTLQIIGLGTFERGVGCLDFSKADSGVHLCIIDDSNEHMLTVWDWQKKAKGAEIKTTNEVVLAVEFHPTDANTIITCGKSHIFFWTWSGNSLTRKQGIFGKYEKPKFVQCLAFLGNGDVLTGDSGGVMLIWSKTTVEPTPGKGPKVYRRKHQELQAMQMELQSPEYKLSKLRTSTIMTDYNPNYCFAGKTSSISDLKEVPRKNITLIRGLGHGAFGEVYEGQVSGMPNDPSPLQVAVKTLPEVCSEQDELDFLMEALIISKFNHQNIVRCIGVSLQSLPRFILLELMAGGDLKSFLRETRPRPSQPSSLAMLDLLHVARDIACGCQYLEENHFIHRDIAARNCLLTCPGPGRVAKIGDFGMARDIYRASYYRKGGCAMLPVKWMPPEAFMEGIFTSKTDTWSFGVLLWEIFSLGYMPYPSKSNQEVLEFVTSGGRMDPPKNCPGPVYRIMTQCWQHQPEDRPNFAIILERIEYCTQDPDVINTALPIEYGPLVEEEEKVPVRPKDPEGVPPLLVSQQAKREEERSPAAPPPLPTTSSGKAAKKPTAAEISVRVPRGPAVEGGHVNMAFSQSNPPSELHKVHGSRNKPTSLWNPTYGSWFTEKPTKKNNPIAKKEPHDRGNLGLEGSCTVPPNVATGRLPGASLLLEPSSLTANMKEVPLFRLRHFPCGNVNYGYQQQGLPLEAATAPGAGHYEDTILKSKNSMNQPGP

## NC(=O)c1cnc(N[C@@H]2CCCC[C@@H]2N)nc1Nc1ccc(-c2ccc(N3CCOCC3)cc2)cc1 (racemic) [Compound X, rac-2-{[(1R,2S)-2-aminocyclohexyl]amino}-4-{[4′-(morpholin-4-yl)biphenyl-4-yl]amino}pyrimidine-5-carboxamide, reference compound]
[1]
  IC50: 220 nM
[2]; Mus musculus, BaF3, 48 h
  IC50: 821 nM
[3]
  growth inhibition against NCI-H2228 cells (tumor) compared with the solvent group: no significant growth inhibition

## CCc1nc(C(N)=O)c(Nc2cccc(S(C)(=O)=O)c2)nc1N[C@H]1CC[C@H](O)CC1 [Example 86]
[1]
  IC50: 17 nM
[2]; Mus musculus, BaF3, 48 h
  IC50: 68 nM

## CCc1nc(C(N)=O)c(Nc2ccc(N3CCC(N4CCN(C)CC4)CC3)cc2OC)nc1N[C@H]1CC[C@H](O)CC1 [Example 284]
[1]
  IC50: 8.9 nM
[2]; Mus musculus, BaF3, 48 h
  IC50: 85 nM

## CCc1nc(C(N)=O)c(Nc2ccc(N3CCN(C)CC3)cc2)nc1N[C@H]1CC[C@H](O)CC1 [Example 325]
[1]
  IC50: 5.3 nM
[2]; Mus musculus, BaF3, 48 h
  IC50: 20 nM

## CCc1nc(C(N)=O)c(Nc2ccc3cnn(C)c3c2)nc1N[C@H]1CC[C@H](O)CC1 [Example 328]
[2]; Mus musculus, BaF3, 48 h
  IC50: 76 nM

## CCc1nc(C(N)=O)c(Nc2ccc(N3CCC(N4CCN(C)CC4)CC3)c(OC)c2)nc1N[C@H]1CC[C@H](O)CC1 [Example 340]
[1]
  IC50: 0.37 nM
[2]; Mus musculus, BaF3, 48 h
  IC50: 9.5 nM

## CCc1nc(C(N)=O)c(Nc2ccc(N3CCC(N4CCN(C)CC4)CC3)cc2)nc1N[C@H]1CC[C@H](O)CC1 [Example 341]
[1]
  IC50: 2.8 nM
[2]; Mus musculus, BaF3, 48 h
  IC50: 11 nM

## CC(C)c1nc(C(N)=O)c(Nc2ccc(N3CCN(C)CC3)cc2)nc1N[C@H]1CC[C@H](O)CC1 [Example 343, 5-[(trans-4-hydroxycyclohexyl)amino]-6-isopropyl-3-{[4-(4-methylpiperazin-1-yl)phenyl]amino}pyrazine-2-carboxamide]
[1]
  IC50: 2.1 nM
[2]; Mus musculus, BaF3, 48 h
  IC50: 11 nM

## CCc1nc(C(N)=O)c(Nc2ccc(N3CCN(C)CC3)c(C(F)(F)F)c2)nc1N[C@H]1CC[C@H](O)CC1 [Example 354]
[1]
  IC50: 0.77 nM
[2]; Mus musculus, BaF3, 48 h
  IC50: 8.6 nM

## CCc1nc(C(N)=O)c(Nc2ccc(N3CCN(C)CC3)c(OC)c2)nc1N[C@H]1CC[C@H](O)CC1 [Example 355]
[1]
  IC50: 0.33 nM
[2]; Mus musculus, BaF3, 48 h
  IC50: 9.2 nM

## CCc1nc(C(N)=O)c(Nc2ccc(N3CCC(N4CCN(C)CC4)CC3)c(C(F)(F)F)c2)nc1N[C@H]1CC[C@H](O)CC1 [Example 370]
[1]
  IC50: 0.65 nM
[2]; Mus musculus, BaF3, 48 h
  IC50: 4.9 nM
[4]
  inhibition rate (tumor volume): 81%

## CCc1nc(C(N)=O)c(Nc2ccc(N3CCN(C)CC3)c(C)c2)nc1N[C@H]1CC[C@H](O)CC1 [Example 377]
[1]
  IC50: 0.24 nM
[2]; Mus musculus, BaF3, 48 h
  IC50: 6.9 nM

## CCc1nc(C(N)=O)c(Nc2ccc(N3CCC(N4CCN(C)CC4)CC3)c(C)c2)nc1N[C@H]1CC[C@H](O)CC1 [Example 378]
[1]
  IC50: 0.26 nM
[2]; Mus musculus, BaF3, 48 h
  IC50: 6.1 nM
[4]
  inhibition rate (tumor volume): 92%

## CCc1nc(C(N)=O)c(Nc2ccc(OC)c(N3CCN(C)CC3)c2)nc1N[C@H]1CC[C@H](O)CC1 [Example 383]
[1]
  IC50: 0.23 nM
[2]; Mus musculus, BaF3, 48 h
  IC50: 5.9 nM

## CC(C)c1nc(C(N)=O)c(Nc2ccc(N3CCC(N4CCN(C)CC4)CC3)c(C(F)(F)F)c2)nc1N[C@H]1CC[C@H](O)CC1 [Example 388]
[1]
  IC50: 0.17 nM
[2]; Mus musculus, BaF3, 48 h
  IC50: 4.1 nM

## CCc1nc(C(N)=O)c(Nc2ccc(N3CCN(C)CC3)c(C)c2)nc1N[C@H]1CC[C@@](C)(O)CC1 [Example 391]
[1]
  IC50: 0.22 nM
[2]; Mus musculus, BaF3, 48 h
  IC50: 6.5 nM

## CCc1nc(C(N)=O)c(Nc2ccc(N3CCC(N4CCN(C)CC4)CC3)c(C)c2)nc1N[C@H]1CC[C@@](C)(O)CC1 [Example 392]
[1]
  IC50: 0.21 nM
[2]; Mus musculus, BaF3, 48 h
  IC50: 6.3 nM
[4]
  rate of regression (tumor volume): 28 (regression) %

## CCc1nc(C(N)=O)c(Nc2ccc(N3CCN(CC4CC4)CC3)c(C(F)(F)F)c2)nc1N[C@H]1CC[C@H](O)CC1 [Example 399]
[1]
  IC50: 0.94 nM
[2]; Mus musculus, BaF3, 48 h
  IC50: 11 nM

## CCc1nc(C(N)=O)c(Nc2ccc(N3CCC(N(C)C)C3)c(C(F)(F)F)c2)nc1N[C@H]1CC[C@H](O)CC1 (stereo partly drawn) [Example 406]
[1]
  IC50: 0.34 nM
[2]; Mus musculus, BaF3, 48 h
  IC50: 9.8 nM

## CCc1nc(C(N)=O)c(Nc2ccc(N3CCN(C(C)C)CC3)c(C)c2)nc1N[C@H]1CC[C@H](O)CC1 [Example 426]
[1]
  IC50: 0.49 nM
[2]; Mus musculus, BaF3, 48 h
  IC50: 11 nM
[4]
  inhibition rate (tumor volume): 81%

## CCOc1cc(Nc2nc(N[C@H]3CC[C@H](O)CC3)c(CC)nc2C(N)=O)ccc1N1CCC(N2CCN(C)CC2)CC1 [Example 459]
[1]
  IC50: 0.26 nM
[2]; Mus musculus, BaF3, 48 h
  IC50: 8.1 nM

## CCc1nc(C(N)=O)c(Nc2ccc(N3CCC(N4CCN(C)CC4)CC3)c(C)c2)nc1N[C@H]1CC[C@](C)(O)CC1 [Example 466]
[1]
  IC50: 0.93 nM
[2]; Mus musculus, BaF3, 48 h
  IC50: 9.3 nM
[4]
  rate of regression (tumor volume): 54 (regression) %

## CCc1nc(C(N)=O)c(Nc2ccc(N3CCC(N4CCN(C)CC4)CC3)c(C)c2)nc1NC1CCC(O)(CC)CC1 (stereo not drawn) [Example 490]
[1]
  IC50: 3.1 nM
[2]; Mus musculus, BaF3, 48 h
  IC50: 18 nM

## CCc1nc(C(N)=O)c(Nc2ccc(N3CCC(N4CCN(C)CC4)CC3)c(C)c2)nc1NC1CCC(O)(CC)CC1 (stereo not drawn) [Example 491]
[1]
  IC50: 2.8 nM
[2]
  IC50: 16 nM

## CCc1nc(C(N)=O)c(Nc2ccc(N3CCC(N4CCN(C)CC4)CC3)c(C)c2)nc1NC1CCC(O)(C(C)C)CC1 (stereo not drawn) [Example 493]
[1]
  IC50: 2.6 nM
[2]
  IC50: 19 nM

## CCc1nc(C(N)=O)c(Nc2ccc(N3CCC(N4CCN(C)CC4)CC3)c(C)c2)nc1NC1CCC(O)(C(C)C)CC1 (stereo not drawn) [Example 494]
[1]
  IC50: 4.1 nM
[2]
  IC50: 42 nM

## CCc1nc(C(N)=O)c(Nc2ccc(N3CCC(N4CCN(C)CC4)CC3)c(C)c2)nc1NC1CCOCC1 [Example 512]
[1]
  IC50: 1.5 nM
[2]; Mus musculus, BaF3, 48 h
  IC50: 19 nM

## Cc1cc(Nc2nc(N[C@H]3CC[C@H](O)CC3)c(Cl)nc2C(N)=O)ccc1N1CCC(N2CCN(C)CC2)CC1 [Example 538]
[1]
  IC50: 2.3 nM
[2]; Mus musculus, BaF3, 48 h
  IC50: 7.7 nM

## CCc1nc(C(N)=O)c(Nc2ccc(N3CCN(C)CC3)cc2)nc1NC1CCOCC1 [Example 545]
[1]
  IC50: 11 nM
[2]; Mus musculus, BaF3, 48 h
  IC50: 25 nM

## CCc1nc(C(N)=O)c(Nc2ccc(N3CCC(N4CCN(C)CC4)CC3)cc2)nc1NC1CCOCC1 [Example 546]
[1]
  IC50: 7.8 nM
[2]; Mus musculus, BaF3, 48 h
  IC50: 23 nM
[4]
  inhibition rate (tumor volume): 79%

## CCc1nc(C(N)=O)c(Nc2ccc(N3CCC(N4CCN(C)CC4)CC3)c(OC)c2)nc1NC1CCOCC1 [Example 547]
[2]; Mus musculus, BaF3, 48 h
  IC50: 5.7 nM

## CCc1nc(C(N)=O)c(Nc2ccc(N3CCN(C)CC3)c(F)c2)nc1NC1CCOCC1 [Example 550]
[1]
  IC50: 11 nM
[2]; Mus musculus, BaF3, 48 h
  IC50: 39 nM

## COc1cc(Nc2nc(NC3CCOCC3)c(C(C)C)nc2C(N)=O)ccc1N1CCN(C)CC1 [Example 553]
[4]
  inhibition rate (tumor volume): 63%

## CC(C)c1nc(C(N)=O)c(Nc2ccc(N3CCN(C)CC3)cc2)nc1NC1CCOCC1 [Example 554]
[1]
  IC50: 4.5 nM
[2]; Mus musculus, BaF3, 48 h
  IC50: 14 nM

## CCc1nc(C(N)=O)c(Nc2ccc(N3CCN(C4CCN(C)CC4)CC3)c(C)c2)nc1NC1CCOCC1 [Example 558]
[1]
  IC50: 2.2 nM
[2]; Mus musculus, BaF3, 48 h
  IC50: 16 nM
[4]
  rate of regression (tumor volume): 37 (regression) %
